This is an account of results in a melting point compilation (Tetko et al.; mined from patent text by program, amines drawn as free bases though some values may be those of a salt).

Usually melting point stands for the temperature, or range, at which the solid turns liquid.

Structures are written as SMILES. Residues, ends and D or L forms follow the SMILES beside them. *: point of attachment. Boc = CC(C)(C)OC(=O)*; OBn = c1ccc(CO*)cc1; βAla = NCCC(=O)O Bounds are passed on as bounds.

The molecule `COC(=O)c1ccc(Cl)c(CSC)c1SC` yielded a melting point of 47.1 °C.
Turning to `N#Cc1ccc(-c2ccc(C#N)cc2-c2nc3ccccc3[nH]2)c(-c2nc3ccccc3[nH]2)c1`, the melting point fell in the range of 347 to 349 °C.
As to `OCc1cccc(-c2cc3nccnc3[nH]2)c1`, the melting point was in the range of 225 to 226 °C.
`COC1C2=C3C(=CN1OC)OCCC3CC(C(N)=O)C2` (stereo not drawn): the melting point is 224 to 226 °C.
Take `CN(C)CC(=O)N1CCC(c2cc(F)ccc2F)(S(=O)(=O)c2ccc(Cl)cc2)CC1`: the melting point lay within 88 to 92 °C.
`COc1cc(Nc2nccc(-c3sc(CO)nc3C)n2)ccc1N1CCOCC1`: the melting point lay within 180 to 181 °C.
Molecule `COc1ccc2ccc(C(N)=O)c(OC)c2c1` showed a melting point of 134 to 136 °C.
With `Cc1ncn(Cc2ccc(NC(=O)Nc3ccc(Oc4cc(Cl)ncn4)cc3)cc2C(F)(F)F)c1C`, the melting point was in the range of 195 to 196 °C.
Take `COc1c(-c2ccccc2)c2ccc(-c3ccc(C(C)C)cc3)cc2oc1=O`: the melting point is 85.5 °C.
Regarding `CSc1ccc(COc2cc(S(=O)(=O)C(C)C)cc(C#N)c2N)nc1`, the melting point was in the range of 156 to 157 °C.
The value for `O=C(CCC12CCC(=O)N1C(=O)CC2)Nc1ccncc1` was 285 to 287 °C; that for `COc1ccc(Nc2nc(Cl)nc(Cl)n2)cc1F` was 134 °C.
Take `Cn1c(C(=O)N2CCC[C@@H]3CCCC[C@H]32)cc2ccccc21` (relative stereo): the melting point fell in the range of 87 to 90 °C.
The molecule `CCNC(=O)C(C)NS(=O)(=O)c1ccc(C)cc1` (racemic) had a melting point of 106 to 107 °C.
`CN(C)c1ccc(NC(=O)N(CC2CCCCC2)C[C@H]2CCC[C@H](CN(CC3CCCCC3)C(=O)Nc3ccc(N(C)C)cc3)C2)cc1` (relative stereo) returned a melting point of 136 to 140 °C.
As to `CCC(CC)Nc1cc(C)nc(Oc2c(C)cc(C)cc2C)c1NC(=O)CCl`, the melting point is 152 to 154 °C.
Consider `O=P1(O)OCc2ccccc21`, for which the melting point was determined as 167 °C.
`Cc1c(C#N)c(=O)[nH]c(=O)n1Nc1c(Cl)cc(Cl)cc1Cl`: the melting point was > 305 °C.
In the case of `COc1ccc(S(=O)C(C)(CC=C(C)C)C(=O)NO)cc1` (stereo not drawn) it was 108 °C; in that of `COc1ccc(Cn2c(C(=O)O)c(-c3ccc4c(c3)OCO4)c3cc(OCc4ccccc4)ccc32)c(OCC(=O)O)c1`, 147 to 148 °C; in that of `COc1ccc2c(c1)c(CC(=O)ON(C(N)=O)C(C)c1cc3ccccc3s1)c(C)n2C(=O)c1ccc(Cl)cc1` (stereo not drawn), 153 to 155 °C.
Molecule `CCC(C(C)=CC(CNC(=O)c1nccnc1N)=NO)[N+](=O)[O-]` (stereo not drawn) gave a melting point of 139 to 141 °C.
For the molecule `O=C(CC1CC(OC(=O)c2ccccc2)CCC1=O)c1ccccc1` (stereo not drawn), the melting point was in the range of 107 to 108 °C.
In turn, `Nc1ccccc1Oc1c(C(=O)O)[nH]c2ccccc12` showed a melting point of 217 to 218 °C.
For the molecule `Oc1ccc2ccc(F)c(F)c2c1F`, the melting point turned out to be 91 °C.
As for `CCn1c(=O)c2[nH]c(C(C)C)nc2n(Cc2ccc(OC)c(OC)c2)c1=O`, the melting point was 198 to 201 °C.
`COCCCc1ccc(C#CC2(O)CN3CCC2CC3)cc1` (stereo not drawn) gave a melting point of 145 °C.
On to `O=c1[nH][nH]c(C(F)(F)F)c1Cc1ccc2c(c1)OCO2`, for which the melting point fell in the range of 196 to 197 °C.
Regarding `O=C1CC(c2cccc(-n3ccnc3)c2)=Nc2cc(OCCO)c(C#Cc3ccc(F)cc3)cc2N1`, the melting point lay within 220 to 222 °C.
In the case of `N#CCOc1ccc(CCNC(=O)OCc2ccccc2)cc1`, the melting point lay in the range of 110 to 115 °C.
Regarding `Cc1cccc(-c2n[nH]cc2-c2ccc(F)c(-c3ccc(OCCO)cn3)c2)n1`, the melting point is 148 to 151 °C.
The molecule `COc1ccc2c(c1)c1c3c(c(-c4ccccc4)cc1n2CCCO)C(=O)NC3=O` displayed a melting point of 241 to 243 °C.
The molecule `CCOC(=O)c1c(O)cc(C(F)(F)F)nc1C(F)(F)F` came in with a melting point of 70 to 77 °C.
As for `Cc1nc2nccc(-c3cccc(C(F)(F)F)c3)n2n1`, the melting point was in the range of 153 to 154 °C.
As for `N#Cc1cnc2c(c1Nc1ccc(Oc3ccccc3)cc1)C=C1N=CN=C1C2`, the melting point is > 270 °C.
With `Cc1cc(O)c(C(=O)Nc2ccc(S(=O)(=O)C(F)(F)F)cc2Cl)c(C)c1S(C)=O` (stereo not drawn), the melting point lay in the range of 205 to 206 °C.
For `NC(=O)C(O)(C(N)=O)c1ccccc1`, the melting point stood at 159 °C.
In turn, `Nc1cc([N+](=O)[O-])c[nH]c1=O` returned a melting point of 200 to 201 °C.
In the case of `CCCn1nc(C2CC2)c(C(=O)OCC)c1Cc1ccc(-c2ccccc2S(=O)(=O)NC(C)(C)C)cc1` it was 165 to 168 °C; in that of `NS(=O)(=O)c1ccc2c(c1)C=C(C(=O)O)C(C(F)(F)F)O2` (stereo not drawn), 188 to 190 °C; in that of `CN1CCCC[C@@H]1Cc1c(-c2ccccc2)[nH]c2ccccc12`, 135 °C.
In the case of `CC(C)(C)CC(C)(C)NC(=O)C1=C(c2ccccc2)C(c2ccccc2)OC1=O` (stereo not drawn) it was 110 to 111 °C.
`N#Cc1ccccc1Cn1cc(-c2ccnc(Cl)c2)n(-c2ccc(F)cc2)c1=O` returned a melting point of 109 °C.
In the case of `Cc1nc2c(Cl)nccc2n1C` it was 197 to 198 °C; in that of `Cc1ccc(C(=O)Nc2cccc(C(F)(F)F)c2)cc1-c1ccc2ncsc2c1`, 102 to 104 °C.
As for `CCN(CC)CCN1c2cc(Cl)ccc2S[C@H]2[C@@H](O)[C@H](O)[C@@H](COC(C)=O)O[C@H]21`, the melting point was 180 °C.
Molecule `CCN1CCCC1CNC(=O)c1cc(S(N)(=O)=O)c(OC)c2c1OCCO2` (stereo not drawn) had a melting point of 110 to 115 °C.
Molecule `COc1ccc(O)c(NC(=O)C(Br)c2ccccc2)c1` (stereo not drawn) yielded a melting point of 145 to 147 °C.
`O=C(O)COc1cc(Cl)ccc1C(=O)NCc1cccc(C(F)(F)F)c1` returned a melting point of 179 to 181 °C.
As for `CN(C)C=CC(=O)c1cccc(OCC(O)CN2CCN(c3ccc(Cl)cc3)CC2)c1` (stereo not drawn), the melting point lay within 144 to 145 °C.
For `CN(C)CCCCCC=C(NC(=O)C1CC1(C)C)C(=O)O` (stereo not drawn), the melting point fell in the range of 101 to 112 °C.
`COc1ccc(C(=O)Cl)cc1OC(=O)c1ccccc1` showed a melting point of 120 to 122 °C.
Take `O=C1CC=C(c2c[nH]c3ccc([N+](=O)[O-])cc23)CC1`: the melting point fell in the range of 210 to 212 °C.
The molecule `CS(=O)(=O)c1ccc(C(Cc2ccc(F)cc2Cl)C(=O)Nc2nc3ccccc3o2)cc1` (stereo not drawn) yielded a melting point of 127 to 128 °C.
Turning to `CCOC(=O)C(CO)NC(=O)C(CC(=O)OCc1ccccc1)NC(=O)CCNC(=O)OC(C)(C)C` (stereo not drawn) ({Boc-βAla}-Asp(OBn)-Ser-OEt; configuration not given here), the melting point was in the range of 132 to 134 °C.
Regarding `O=C(O)C(=O)c1ccc(OCC(=O)C2CCCCCCC2)cc1`, the melting point is 109 to 110 °C.
In the case of `Cc1c(CC(=O)O)cccc1C(=O)c1ccc(Cl)cc1` it was 152 °C.
`Cc1nc(NCCc2ccccc2)c2c(n1)N(c1ccccc1)CC2` yielded a melting point of 105 to 106 °C.
Molecule `CC(C)(C)C(=O)OC1CC(C)(C)N(OC(=O)C(C)(C)C)C(C)(C)C1` yielded a melting point of 43 to 46 °C.
In the case of `NC(=O)N(O)CCc1ccc(Sc2cccc(C(F)(F)F)c2)s1` it was 124 to 126 °C; in that of `O=C(c1ccccc1F)C1CCN(CCc2c[nH]c3ccccc23)CC1`, 106 to 108 °C.
In the case of `O=C(CF)NCc1ccc2ccn(C3CCN(CCc4ccc(F)cc4)CC3)c2c1` it was 106 to 108 °C.
In turn, `Oc1ncc(-c2ccc(Cl)cc2)cn1` displayed a melting point of 324 to 327 °C.
On to `COc1ccc(C=CC(=O)Nc2ccncc2)c2c1OC1(CCCC1)C2`, for which the melting point was 124 to 128 °C.
In turn, `COc1ccc(-n2nc(Cl)cc2-c2ccc(OCCNC(N)=O)cc2)cn1` displayed a melting point of 156 to 158 °C.
Turning to `O=Cc1ccc2c(c1I)OCO2`, the melting point is 124 to 126 °C.
Molecule `CC(C)(C)OC(=O)N=C(NC(=O)OC(C)(C)C)N1CCCC1` registered a melting point of 88 to 91 °C.
`Fc1ccc(N2CCN(Cc3ccc4c(c3)NCCN4)CC2)cc1` had a melting point of 126 to 127 °C.
In the case of `CC(C)(C)OC(=O)N1CCN2C(=O)N(c3ccc(C#N)c4ccccc34)C(=O)C2C1` (stereo not drawn), the melting point was in the range of 222 to 224 °C.
The value for `CCOC(=O)c1sc2c(Br)cccc2c1C` was 67 to 70 °C.
The molecule `O=C(O)COc1ccccc1-c1ccc(Cl)c(C(=O)NCC23CC4CC(CC(C4)C2)C3)c1` registered a melting point of 208 to 210 °C.
In the case of `CCC(Oc1ccccc1Cl)C(=O)OC1CC(O)C=C2C=CC(C)C(CCC3CC(O)CC(=O)O3)C21` (mixture of isomers) it was 145 to 147 °C.
In turn, `CS(=O)(=O)n1c2cc(O)c(O)cc2c2cc(O)c(O)cc21` displayed a melting point of 278 to 280 °C.
`CN(N)C(=S)Nc1ccc(C#N)cc1` had a melting point of 178 to 179 °C.
On to `COc1cccc(C(=O)c2cccc(Cl)c2)c1`, for which the melting point turned out to be 52 °C.
The value for `O=C(Nc1ccc(Oc2ccnc(NCC3OCCO3)n2)c2ccccc12)c1cc(F)cc(N2CCCCC2)c1` was 96 to 98 °C.
Turning to `O=C(Nc1ccccc1N1CCc2ccccc21)C1CCC1`, the melting point fell in the range of 81 to 83.5 °C.
Take `CNS(=O)(=O)c1cn(C)c2ccc(OC)cc2c1=O`: the melting point is 262 to 264 °C.
Molecule `COC1CC(n2cc(C=CBr)c(=O)n(C)c2=O)OC1CF` (stereo not drawn) registered a melting point of 95 °C.
`Cc1cccc(-c2c(CC(=O)Nc3ccc(F)cc3C(F)(F)F)c(=O)oc3cc4c(cc23)CCC4O)c1` (stereo not drawn): the melting point was in the range of 225 to 227 °C.
In the case of `CCCCc1nc(Cl)c(CO)n1Cc1ccc(-c2ccccc2-c2nnnn2C(c2ccccc2)(c2ccccc2)c2ccccc2)cc1` it was 95 to 98 °C; in that of `CN1C(NCc2ccccc2)=Nc2ccncc2S1(=O)=O`, 142 to 146 °C.
In the case of `COC(=O)CCCCCCn1[nH]c(=O)n(C)c1=O` it was 80 to 81 °C; in that of `OCCC(CCO)c1ccncc1`, 66 to 68 °C.
The value for `O=C(OC#CCc1ccccc1)C1CN=CNC1` (stereo not drawn) was 117 to 118 °C; that for `CCCCNc1cc(-c2nc(N)n[nH]2)ccn1` was 268 to 270 °C.
Take `COc1cc(C(O)CN2CCC(Cc3ccccc3)CC2)on1` (stereo not drawn): the melting point fell in the range of 134 to 137 °C.
Molecule `C=C1CC2C(CCC3(C)C2CCC3(OC(=O)CCCCC)C(C)=O)C2(COC(C)=O)CCC(=O)C=C12` (stereo not drawn) registered a melting point of 111 to 112 °C.
